# According to ChEMBL document CHEMBL1156829 (Proc Natl Acad Sci U S A, 2008):
# How the values were obtained:
# Plasmodium falciparum [1] = test: NOVARTIS: Inhibition of Plasmodium falciparum 3D7 (drug-susceptible) proliferation in erythrocyte-based infection assay; type: functional, organism-based; conditions: Plasmodium falciparum, 3D7
# Plasmodium falciparum [2] = test: NOVARTIS: Inhibition of Plasmodium falciparum W2 (drug-resistant) proliferation in erythrocyte-based infection assay; type: functional, organism-based; conditions: Plasmodium falciparum, W2; read-out: EC50
# [3] = NOVARTIS: Cytotoxicity against human hepatocellular carcinoma cell line (Huh7); type: toxicity, cell-based, Huh-7; conditions: Huh7 cells (hepatocellular carcinoma cell line)
SMILES,EC50 (Plasmodium falciparum [1]),EC50 (Plasmodium falciparum [2]),CC50 [3]
Cc1ccc(S(=O)(=O)N=C2C=C(Sc3nc4ccccc4[nH]3)C(=O)c3ccccc32)cc1,632 nM,834 nM,16800 nM
CCCCCCCCCC(=O)Oc1ccccc1-c1nc2cc(C)ccn2c1NC(C)(C)CC(C)(C)C,1010 nM,88.8 nM,> 10000 nM
O=C(NCc1ccc(Cl)cc1)C1CNCC1c1ccc(C(F)(F)F)cc1 (centres undefined),392 nM,412 nM,18200 nM
OCCCNc1cc(-c2ccccn2)nc(-c2ccccn2)n1,> 908 nM,401 nM,> 10000 nM
O=C(NCc1nnc(SCC2CCCO2)n1Cc1ccccc1)c1cccc2ccccc12 (centres undefined),1870 nM,< 26.5 nM,8280 nM
CC(C)(C)CC(=O)N1CCC[C@@H]2CN(C(=O)CCOc3ccccc3)CC[C@@H]21,> 1250 nM,> 874 nM,> 10000 nM
CSc1nnc(CCNC(=O)c2c(-c3ccccc3)noc2C)n1-c1ccc(F)cc1,> 12500 nM,2410 nM,> 100000 nM
CC[C@]1(C2OC(C3O[C@](O)(CO)[C@@H](C)C[C@H]3C)C[C@H]2C)CCC([C@@]2(C)CC[C@@]3(C[C@@H](O)[C@H](C)C([C@H](C)[C@H](OC)C(C)C(=O)O)O3)O2)O1 (some centres undefined),2.79 nM,< 0.868 nM,1290 nM
COc1ccc(-c2nc(SCCCCC(=O)N3CCN(C(c4ccccc4)c4ccccc4)CC3)[nH]c2-c2ccc(OC)cc2)cc1,> 1180 nM,< 13.4 nM,> 10000 nM
O=C(Oc1ccc(N2C(=O)c3ccc([N+](=O)[O-])cc3C2=O)cc1)c1ccco1,> 10000 nM,> 10000 nM,> 100000 nM
Cc1ccc(NC(=O)COc2ccc(Cl)cc2Cl)nc1,> 5570 nM,> 3030 nM,> 100000 nM
C[n+]1oc(C=Cc2ccccc2)cc1C=Cc1ccccc1,68.8 nM,28.8 nM,21200 nM
CCCC[n+]1c(-c2ccccc2)cc(-c2ccccc2)cc1-c1ccccc1,824 nM,467 nM,12900 nM
CC1(C)Oc2ccc3ccc(=O)oc3c2CC1=NNC(N)=S,> 12500 nM,4190 nM,> 100000 nM
Cc1nc(-c2ccccc2)nc(C(=O)N2CCN(S(=O)(=O)/C=C/c3ccccc3)C(C)C2)c1C(=O)OCC(C)C (centres undefined),931 nM,785 nM,> 10000 nM
CCC(C)OC(=O)C1=C(C)NC2=C(C(=O)CC(c3ccc(OC)cc3)C2)C1c1ccc(O)cc1 (centres undefined),500 nM,31.2 nM,> 100000 nM
C=CCSc1oc(-c2ccco2)nc1[P+](c1ccccc1)(c1ccccc1)c1ccccc1,310 nM,416 nM,8420 nM
C=CCSC1=NC2(CC(c3ccccc3)c3cc(Cl)c(O)cc3O2)CC(C)(C)N1 (centres undefined),> 1190 nM,1520 nM,> 10000 nM
CC(C)c1ccc(/C=C/C(=O)NCc2ccco2)cc1,890 nM,628 nM,> 10000 nM
O=C1NC(=S)N/C1=C/c1cccc(Oc2ccccc2)c1,1880 nM,> 191 nM,> 10000 nM
CCOc1ccc(N2C(=O)NC(=O)/C(=C\c3cn(C(C)=O)c4ccccc34)C2=O)cc1,> 1250 nM,1860 nM,> 10000 nM
COc1ccc(OC)c(C2CC(=O)N3CN(Cc4ccccc4)CSC3=C2C#N)c1 (centres undefined),638 nM,482 nM,> 100000 nM
Fc1ccc(CCNc2ncnc3c2[nH]c2ccccc23)cc1,257 nM,133 nM,12000 nM

SMILES,EC50 (Plasmodium falciparum [1]),EC50 (Plasmodium falciparum [2]),CC50 [3]
O=C(Cn1ccc(=NCc2ccccc2)cc1)c1cccc([N+](=O)[O-])c1,397 nM,439 nM,> 10000 nM
CN(C)c1ccc(C(=C2C=CC(=[N+](C)C)C=C2)c2ccc(N(C)C)cc2)cc1 [GENTIAN VIOLET],22.1 nM,170 nM,1430 nM
CCOC(=O)c1cnc2ccc(Cl)cc2c1Nc1ccc(OC)c(OC)c1,2670 nM,4430 nM,> 100000 nM
C=CCNC(=O)c1cc2c(=O)n3ccccc3nc2n(CCc2ccccc2)c1=N,1530 nM,2320 nM,> 100000 nM
COc1ccc(-c2cc(-c3ccc(C)cc3)[nH]n2)c(O)c1,1520 nM,198 nM,25600 nM
CC(=O)N(C1=C(N2CCCCC2)C(=O)c2ccccc2C1=O)c1ccc(F)c(F)c1,238 nM,94.7 nM,47700 nM
Cc1ccc(S(=O)(=O)Nc2nc3n(n2)C(c2ccccc2)C=C(c2ccccc2)N3)cc1 (centres undefined),> 1070 nM,> 1250 nM,> 10000 nM
O=C(Nc1cc(C(F)(F)F)ccc1OCc1ccccc1)c1ccccc1O,> 1250 nM,949 nM,> 10000 nM
CN(C)c1ccc(/C=C/c2cccc(/C=C/c3ccc(N(C)C)cc3)[n+]2C)cc1,210 nM,296 nM,2530 nM
N#Cc1cccc(C=CC(=O)O)c1,> 12500 nM,1220 nM,> 100000 nM
C#CCNC(=O)c1ccc(OC2CCN(CC(c3ccccc3)c3ccccc3)CC2)c(OC)c1,207 nM,88.3 nM,55000 nM
CCN(CC)CCCC(C)N=c1cc(C=Cc2ccc([N+](=O)[O-])cc2)[nH]c2ccc(OC)cc12 (centres undefined),20.9 nM,14 nM,11700 nM
CC(C)c1nc(N2CCN(C(=O)Nc3ccccc3)CC2)c(C#N)c2c1COC(C)(C)C2,53.8 nM,67.7 nM,> 100000 nM
O=C(CN1CCCC1)Nc1ccc(-c2nc3cc(NC(=O)CN4CCCC4)ccc3o2)cc1,2460 nM,1360 nM,36200 nM
Cc1cc(NC(=O)c2ccc(S(=O)(=O)N(Cc3ccccc3)C(C)C)cc2)no1,2690 nM,538 nM,> 100000 nM
COc1cc(C(=O)NC2CC3CCC(C2)N3C2CC2)cc(OC)c1OC (centres undefined),450 nM,487 nM,> 100000 nM
OC(c1cc(C(F)(F)F)nc2c(C(F)(F)F)cccc12)C1CCCCN1 (centres undefined) [MEFLOQUINE],24.8 nM,8.14 nM,18800 nM
N#Cc1ccccc1Cn1ccc(=NCc2ccccc2)cc1,1060 nM,> 465 nM,> 10000 nM
CCN(CC)c1ccc2c(C)cc(Nc3ccccc3)[o+]c2c1,239 nM,746 nM,> 10000 nM
O=C(Nc1ccccc1F)NC1CC2CCCC(C1)N2CCc1ccccc1 (centres undefined),440 nM,140 nM,> 10600 nM
NNc1ncnc2[nH]cnc12,303 nM,666 nM,> 10000 nM
CCCCCN(C(=O)Nc1ccccc1OC)C(C)c1nc2ccccc2c(=O)n1-c1ccccc1OCC (centres undefined),843 nM,917 nM,> 10000 nM
Oc1ccc(-c2ccccc2)cc1CNCCCN1CCOCC1,706 nM,28.4 nM,> 10000 nM

SMILES,EC50 (Plasmodium falciparum [1]),EC50 (Plasmodium falciparum [2]),CC50 [3]
CCOc1ccc(Nc2ccnc3cc(Cl)ccc23)cc1,956 nM,986 nM,> 100000 nM
O=C1CC(c2ccccc2)Oc2ccc(F)cc21 (centres undefined),> 1250 nM,> 734 nM,> 10000 nM
CCOC(=O)c1c(C)n(-c2ccccc2)c2ccc(OC(=O)c3ccccc3NC(=O)CC)cc12,1060 nM,1530 nM,> 100000 nM
CC(C)(C)NCC(O)Cn1c2ccc(Br)cc2c2cc(Br)ccc21 (centres undefined),213 nM,14.1 nM,20700 nM
CCSC1=CC(=O)c2ccccc2C1=O,551 nM,230 nM,5170 nM
Oc1ccc(-c2cncc(NCc3cccc(O)c3)c2)cc1,626 nM,1250 nM,> 10000 nM
CCN(CC(=O)N1CCc2cc(OC)c(OC)cc2C1C)C(=O)Nc1ccc(Br)cc1 (centres undefined),> 1250 nM,> 692 nM,> 10000 nM
O=C(NCCN(CCNc1ccnc2cc(Cl)ccc12)CCNc1ccnc2cc(Cl)ccc12)C1CCC1,207 nM,255 nM,> 10000 nM
N#Cc1c(N)nc(SCC(=O)c2ccc(Br)cc2)c(C#N)c1-c1ccccc1,581 nM,560 nM,> 56600 nM
C=CCNC(=O)c1ccc2c(c1)N=C(/C=C/c1ccccc1)N(CCc1cccc(OC)c1)C2,1340 nM,1040 nM,> 10000 nM
Cc1cc(Nc2cccc(Cl)c2)nc(NCc2ccccc2)n1,51 nM,607 nM,17100 nM
CCCOC(=O)C1=C(C)NC2=C(C(=O)CC(c3ccc(OC)cc3)C2)C1c1cccc(Cl)c1Cl (centres undefined),233 nM,30.8 nM,> 100000 nM
O=c1c([N+](=O)[O-])cccn1Cc1ccc(F)cc1Cl,358 nM,783 nM,> 100000 nM
OC(CN1CCOCC1)Cn1cnc2c(SCc3ccccc3)ncnc21 (centres undefined),> 12500 nM,> 9670 nM,> 100000 nM
CCCCCCN(C(=O)COCc1ccccc1)C(CC)c1nc2ccccc2c(=O)n1-c1ccc(F)c(Cl)c1 (centres undefined),607 nM,821 nM,> 10000 nM
Cc1noc(C)c1S(=O)(=O)N(Cc1ccccc1)CC(O)CN1CCC(NC(=O)Cc2cccs2)C1 (centres undefined),175 nM,141 nM,> 10000 nM
Cc1ccccc1CSc1ccc(-c2cccs2)nn1,> 1060 nM,963 nM,> 10000 nM
C[n+]1c2n(c3ccccc31)N=C(c1ccccc1)CS2,454 nM,347 nM,45100 nM
O=C(NC(CN1CCCC1)c1ccccc1)C1CCN(S(=O)(=O)c2ccc(Cl)cc2)CC1 (centres undefined),160 nM,648 nM,36800 nM
COc1ccc(C2C(C(N)=O)=C(C)Nc3ncnn32)cc1OC (centres undefined),380 nM,1150 nM,> 10000 nM
N#Cc1cc(Oc2ccc(-c3cnc4ccccc4n3)cc2)nc2ccccc12,> 12500 nM,6150 nM,> 100000 nM
Cc1ccccc1/C=C1\SC(=Nc2ccccc2)NC1=O,1060 nM,> 12500 nM,> 100000 nM
